Like-named read-outs stand apart in the source and are kept apart here. Positions of bridges follow the written chain, without caps; N, C: chain ends. Non-standard residues stand in square brackets, D forms with d. Residues, ends and D or L forms follow the SMILES beside them. *: point of attachment. Orn(iPr) = CC(C)NCCC[C@H](N)C(=O)O; Orn(Pr) = CCCNCCC[C@H](N)C(=O)O; 2Thi = N[C@@H](Cc1cccs1)C(=O)O; NH(3-hydroxypropyl) = OCCCN*; Orn = NCCC[C@H](N)C(=O)O
How the values were obtained:
[1] = biological target: T1, hV1a receptor (Homo sapiens, UniProt P37288); test: hV1a receptor transcriptional reporter (luciferase) agonist assay; format: cell-based
T1 construct: expressed in transfected cells; host or cells: HEK-293

[2] = system: anaesthetised Sprague-Dawley male rats; test: in vivo duration of action, blood pressure test in anaesthetised rats; design: species or system rat; details: ratio of decay rate of diastolic blood pressure response, AVP 0.1 nmol/kg i.v. to equieffective dose of compound; dibenamine-pretreated rats
Experimental: Blood pressure tests were carried out on anaesthetised Sprague-Dawley male rats (weighing 270-300 g) with catheterised jugular vein and carotid artery. The catheterised carotid artery was used to continuously monitor blood pressure and the jugular vein was used for administration of the compounds tested. Rats received intravenous injections of dibenamine prior to dosing to enhance their responsiveness to V1a receptor agonists (cf. Dekanski, J., Br. J. Pharmacol. 1952, 7, 567-572). […] Dosing intervals were set as time for the blood pressure to decrease to a stable baseline.
Determination of duration of action was based on the decay rate of diastolic arterial blood pressure transient increase. Specifically, for an exponential decay of plasma concentration, it can be shown that, if the response is measured beyond the distribution phase, the rate of decay near the EC50 is linear and inversely proportional to the elimination half-life (Rowland, M. and Tozer, T. in “Clinical Pharmacokinetics, Concepts and Applications”, 3rd ed., Lippincott Williams & Wilkins, Philadelphia, 1995).

[3] = biological target: T2, human oxytocin (hOT) receptor (Homo sapiens, UniProt P30559); test: luciferase-based transcriptional reporter assay, selectivity hOT versus hV1a; format: cell-based
T2 construct: expressed in transfected cells
T2 sequence (P30559 1-389): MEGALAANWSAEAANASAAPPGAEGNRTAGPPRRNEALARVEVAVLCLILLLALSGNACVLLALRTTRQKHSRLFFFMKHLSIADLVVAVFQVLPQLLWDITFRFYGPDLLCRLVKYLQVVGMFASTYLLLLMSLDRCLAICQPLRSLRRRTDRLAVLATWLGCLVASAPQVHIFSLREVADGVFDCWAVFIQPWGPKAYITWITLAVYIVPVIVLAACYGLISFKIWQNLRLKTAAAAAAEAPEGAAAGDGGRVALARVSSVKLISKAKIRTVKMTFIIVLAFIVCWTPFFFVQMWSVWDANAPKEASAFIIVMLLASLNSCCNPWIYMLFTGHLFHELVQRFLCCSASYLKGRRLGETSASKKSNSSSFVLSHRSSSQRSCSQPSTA

T1 sequence (P37288 whole entry): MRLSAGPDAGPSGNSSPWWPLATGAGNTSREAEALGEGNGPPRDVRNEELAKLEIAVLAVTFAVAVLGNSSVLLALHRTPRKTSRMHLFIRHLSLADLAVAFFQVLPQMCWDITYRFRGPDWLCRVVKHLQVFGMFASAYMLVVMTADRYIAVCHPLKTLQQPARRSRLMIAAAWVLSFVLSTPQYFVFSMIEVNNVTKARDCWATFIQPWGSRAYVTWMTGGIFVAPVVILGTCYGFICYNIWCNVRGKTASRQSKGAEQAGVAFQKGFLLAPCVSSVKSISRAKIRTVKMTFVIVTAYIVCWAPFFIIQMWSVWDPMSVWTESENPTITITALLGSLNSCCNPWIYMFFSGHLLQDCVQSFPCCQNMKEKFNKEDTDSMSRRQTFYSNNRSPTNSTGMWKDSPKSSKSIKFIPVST

Compound: CC[C@H](C)[C@@H]1NC(=O)[C@H](Cc2ccccc2)NC(=O)[C@@H](N)CSSC[C@@H](C(=O)N2CCC[C@H]2C(=O)N[C@@H](CCCN)C(=O)NCC(N)=O)NC(=O)[C@H](CC(N)=O)NC(=O)[C@H](CCC(=O)NC)NC1=O [Compound 19] (H-CFIE(NHMe)NCP[Orn]G-NH2; disulfide 1-6)
- EC50 ([1]; HEK-293 cells transiently transfected with hV1a receptor, 5 hours exposure, geometric mean, read-out: EC50 hV1a receptor): 5990 pM
- in vivo duration relative to AVP [2]: 1.6
- selectivity hOT/hV1a ([3]; class symbol, agonist efficacy at hOT receptor compared to AVP): + (selective hV1a receptor agonist; EC50 hOT/hV1a ratio not determined due to very low agonist efficacy (<30% compared to AVP) at the hOT receptor)

Compound: CC[C@H](C)[C@@H]1NC(=O)[C@H](Cc2cccs2)NC(=O)[C@@H](N)CSSC[C@@H](C(=O)N2CCC[C@H]2C(=O)N[C@@H](CCCNC(C)C)C(=O)NCC(N)=O)NC(=O)[C@H](CC(N)=O)NC(=O)[C@H](CCC(N)=O)NC1=O [Compound 34] (H-C[2Thi]IQNCP[Orn(iPr)]G-NH2; disulfide 1-6)
- EC50 [1]: 730 pM
- in vivo duration relative to AVP [2]: 2.0
- selectivity hOT/hV1a [3]: 72

Compound: CC[C@H](C)[C@@H]1NC(=O)[C@H](Cc2ccccc2)NC(=O)[C@@H](N)CSSC[C@@H](C(=O)N2CCC[C@H]2C(=O)N[C@@H](CCCN)C(=O)NCC(N)=O)NC(=O)[C@H](CC(N)=O)NC(=O)[C@H](CC(=O)NCCCO)NC1=O [Compound 2] (H-CFID(NH(3-hydroxypropyl))NCP[Orn]G-NH2; disulfide 1-6)
- EC50 [1]: 1180 pM
- in vivo duration relative to AVP [2]: 1.7
- selectivity hOT/hV1a [3]: + (key: +: selective hV1a receptor agonist; EC50 hOT/hV1a ratio not determined due to very low agonist efficacy (<30% compared to AVP) at the hOT receptor)

Compound: CCCNCCC[C@H](NC(=O)[C@@H]1CCCN1C(=O)[C@@H]1CSSC[C@H](N)C(=O)N[C@@H](Cc2ccccc2)C(=O)N[C@@H]([C@@H](C)CC)C(=O)N[C@@H](CCC(N)=O)C(=O)N[C@@H](CC(N)=O)C(=O)N1)C(=O)NCC(N)=O [Compound 40] (H-CFIQNCP[Orn(Pr)]G-NH2; disulfide 1-6; N-terminus and C-terminus assumed)
- EC50 [1]: 270 pM
- in vivo duration relative to AVP [2]: 2.0
- selectivity hOT/hV1a ([3]; EC50 ratio): 88

Compound: CC[C@H](C)[C@@H]1NC(=O)[C@H](Cc2ccccc2)NC(=O)[C@@H](N)CSSC[C@@H](C(=O)N2CCC[C@H]2C(=O)N[C@@H](CCCNC(C)C)C(=O)NCC(N)=O)NC(=O)[C@H](CC(N)=O)NC(=O)[C@H](CCC(N)=O)NC1=O [Compound 5] (H-CFIQNCP[Orn(iPr)]G-NH2; disulfide 1-6; N-terminus and C-terminus assumed)
- EC50 [1]: 250 pM
- in vivo duration relative to AVP [2]: 1.9
- selectivity hOT/hV1a ([3]; EC50 ratio): 117
